Converted amounts (≈) assume the structure as drawn.
Legend:
Type in all cases: functional
Pseudomonas aeruginosa = experiment: Antibacterial activity against Pseudomonas aeruginosa DSM 22644 incubated for 24 hrs by disk diffusion method
Staphylococcus aureus = experiment: Antibacterial activity against Staphylococcus aureus DSM 799 incubated for 24 hrs by disk diffusion method
Bacillus subtilis = experiment: Antibacterial activity against Bacillus subtilis DSM 1088 incubated for 24 hrs by disk diffusion method
Streptococcus pyogenes = experiment: Antibacterial activity against Streptococcus pyogenes DSM 11728 incubated for 24 hrs by disk diffusion method
Escherichia coli = experiment: Antibacterial activity against Escherichia coli DSM 682 incubated for 24 hrs by disk diffusion method

`CC(C)[C@@H](C)/C=C/[C@@H](C)[C@H]1CCC2C3=CC(=O)O[C@@]3(O)CC[C@@]21C` (stereo not given in full) [DEMETHYLINCISTEROL A3] showed an MIC (Pseudomonas aeruginosa; DSM 22644, 24 h) of over 10 µg/mL, an MIC (Staphylococcus aureus; DSM 799, 24 h) of over 10 µg/mL and an MIC (Bacillus subtilis; DSM 1088, 24 h) of over 10 µg/mL. The MIC (Streptococcus pyogenes; DSM 11728, 24 h) was over 10 µg/mL and the MIC (Escherichia coli; DSM 682, 24 h) was over 10 µg/mL.
In the case of `CC(C)[C@@H](C)/C=C/[C@@H](C)[C@H]1CC[C@H]2C3=CC(=O)[C@@]4(O)C[C@@H](O)CC[C@]4(C)[C@@]3(O)CC[C@]12C`, the MIC (Pseudomonas aeruginosa; DSM 22644, 24 h) is reported as over 10 µg/mL, the MIC (Staphylococcus aureus; DSM 799, 24 h) is reported as over 10 µg/mL and the MIC (Bacillus subtilis; DSM 1088, 24 h) is reported as 5 µg/mL (≈ 11.2 µM). The MIC (Streptococcus pyogenes; DSM 11728, 24 h) was over 10 µg/mL and the MIC (Escherichia coli; DSM 682, 24 h) was over 10 µg/mL.
Work on `CO[C@]12CC[C@]3(C)[C@@H]([C@H](C)/C=C/[C@H](C)C(C)C)CC[C@H]3C1=CC(=O)O2` yielded an MIC (Pseudomonas aeruginosa; DSM 22644, 24 h) of over 10 µg/mL, an MIC (Staphylococcus aureus; DSM 799, 24 h) of over 10 µg/mL and an MIC (Bacillus subtilis; DSM 1088, 24 h) of over 10 µg/mL. The MIC (Streptococcus pyogenes; DSM 11728, 24 h) was over 10 µg/mL and the MIC (Escherichia coli; DSM 682, 24 h) was over 10 µg/mL.
Compound `CC(C)=CC[C@H](O)[C@@H](C)[C@H]1CC[C@@]2(C)c3ccc4c(c3C[C@@H](O)[C@]12C)[C@@H](O)C[C@H](O)C4(C)C` has an MIC (Pseudomonas aeruginosa; DSM 22644, 24 h) of 2 µg/mL (≈ 4.38 µM), an MIC (Staphylococcus aureus; DSM 799, 24 h) of 5 µg/mL (≈ 10.9 µM) and an MIC (Bacillus subtilis; DSM 1088, 24 h) of 2 µg/mL (≈ 4.38 µM). The MIC (Streptococcus pyogenes; DSM 11728, 24 h) was 0.1 µg/mL (≈ 0.219 µM) and the MIC (Escherichia coli; DSM 682, 24 h) was 5 µg/mL (≈ 10.9 µM).
GENTAMICIN gave an MIC (Pseudomonas aeruginosa) of 1 µg/mL, an MIC (Staphylococcus aureus) of 1 µg/mL and an MIC (Bacillus subtilis) of 1 µg/mL. It also gave an MIC (Streptococcus pyogenes) of 10 µg/mL and an MIC (Escherichia coli) of 1 µg/mL.
With `CC(C)[C@@H](C)/C=C/[C@@H](C)[C@H]1CC[C@H]2/C(=C/C(=O)O[C@]3(C)CCC=CC3=O)C(=O)CC[C@]12C` the MIC (Pseudomonas aeruginosa; DSM 22644, 24 h) was over 10 µg/mL, the MIC (Staphylococcus aureus; DSM 799, 24 h) was 1 µg/mL (≈ 2.27 µM) and the MIC (Bacillus subtilis; DSM 1088, 24 h) was 5 µg/mL (≈ 11.3 µM). For the same compound, the MIC (Streptococcus pyogenes; DSM 11728, 24 h) was over 10 µg/mL and the MIC (Escherichia coli; DSM 682, 24 h) was over 10 µg/mL.
`CC(C)[C@@H](C)/C=C/[C@@H](C)[C@H]1CC[C@H]2C3=C[C@H](O)[C@@]4(O)C[C@@H](O)CC[C@]4(C)C3=CC[C@]12C` gave an MIC (Pseudomonas aeruginosa; DSM 22644, 24 h) of over 10 µg/mL, an MIC (Staphylococcus aureus; DSM 799, 24 h) of over 10 µg/mL and an MIC (Bacillus subtilis; DSM 1088, 24 h) of over 10 µg/mL. For the same compound, the MIC (Streptococcus pyogenes; DSM 11728, 24 h) was over 10 µg/mL and the MIC (Escherichia coli; DSM 682, 24 h) was over 10 µg/mL.
In the case of `CC(C)[C@@H](C)/C=C/[C@@H](C)[C@H]1CC[C@@]2(O)C3=CC(=O)[C@@]4(O)C[C@@H](O)CC[C@]4(C)[C@@]3(O)CC[C@]12C`, the MIC (Pseudomonas aeruginosa; DSM 22644, 24 h) is reported as over 10 µg/mL, the MIC (Staphylococcus aureus; DSM 799, 24 h) is reported as over 10 µg/mL and the MIC (Bacillus subtilis; DSM 1088, 24 h) is reported as over 10 µg/mL. The MIC (Streptococcus pyogenes; DSM 11728, 24 h) was over 10 µg/mL and the MIC (Escherichia coli; DSM 682, 24 h) was over 10 µg/mL.
Compound `CN[C@@H]1[C@H](O[C@H]2[C@H](O[C@H]3[C@H](O)[C@@H](O)[C@H](N=C(N)N)[C@@H](O)[C@@H]3N=C(N)N)O[C@@H](C)[C@]2(O)C=O)O[C@@H](CO)[C@H](O)[C@H]1O` [STREPTOMYCIN] has an MIC (Pseudomonas aeruginosa; DSM 22644, 24 h) of 10 µg/mL (≈ 17.2 µM), an MIC (Staphylococcus aureus; DSM 799, 24 h) of 5 µg/mL (≈ 8.6 µM) and an MIC (Bacillus subtilis; DSM 1088, 24 h) of 5 µg/mL (≈ 8.6 µM). It also gave an MIC (Streptococcus pyogenes; DSM 11728, 24 h) of over 10 µg/mL and an MIC (Escherichia coli; DSM 682, 24 h) of 1 µg/mL (≈ 1.72 µM).

Reference: ChEMBL document CHEMBL3593195, “Endophytic Diaporthe sp. LG23 Produces a Potent Antibacterial Tetracyclic Triterpenoid” (2015)
